Tests used:
mA2a/CHO = mA2a/CHO (Mus musculus (Mouse), UniProt Q60613); experiment: cAMP inhibition assay in mA2a/CHO cells, 10 μM adenosine; assay type: cell-based; details: read-out: cAMP & FLIPR IC50 (nM) mA2a;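 further: compounds preincubated 30 min at 37 °C before the adenosine challenge, then 30 min further stimulation, readout after 60 min detection reagent incubation at room temperature in 384-well plates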
Description: (§1) hA2a/CHO, hA2b/CHO, hA3/CHO and mA2a/CHO (Genscript) were plated at 5×10^3 cells/well into 384-well polystyrene plates at the day of experiment. Compounds were pre-incubated with cells for 30 min at 37° C., 5% CO2. Then 10 μM adenosine was added to the cells and incubated for 30 min at 37° C., 5% CO2. Detection reagent (CISBIO) was added and the plates were incubated for 60 min at room temperature. The signal was captured by Envision.

hA2a/CHO = hA2a/CHO (Homo sapiens (Human), UniProt P29274); experiment: cAMP inhibition assay in hA2a/CHO cells, 10 μM adenosine; assay type: cell-based; details: read-out: cAMP & FLIPR IC50 (nM) hA2a;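 further: compounds added to cells 30 min ahead of adenosine, then a further 30 min at 37 °C with adenosine before cAMP detection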
Description: as §1

hA2b/CHO = hA2b/CHO (Homo sapiens (Human), UniProt P29275); experiment: cAMP inhibition assay in hA2b/CHO cells, 10 μM adenosine; assay type: cell-based; details: read-out: cAMP & FLIPR IC50 (nM) hA2b;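 further: cells exposed to compound 30 min at 37 °C, then stimulated with adenosine a further 30 min, cAMP read after 60 min at room temperature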
Description: as §1

[1] = biological target: hADORA1/CHO (hA1 expressing) cells (Homo sapiens (Human), UniProt P30542); experiment: cell-based; details: FLIPR inhibition, 10 μM adenosine, read-out: cAMP & FLIPR IC50 (nM) hA1
Chain of hADORA1/CHO (hA1 expressing) cells (P30542 whole entry): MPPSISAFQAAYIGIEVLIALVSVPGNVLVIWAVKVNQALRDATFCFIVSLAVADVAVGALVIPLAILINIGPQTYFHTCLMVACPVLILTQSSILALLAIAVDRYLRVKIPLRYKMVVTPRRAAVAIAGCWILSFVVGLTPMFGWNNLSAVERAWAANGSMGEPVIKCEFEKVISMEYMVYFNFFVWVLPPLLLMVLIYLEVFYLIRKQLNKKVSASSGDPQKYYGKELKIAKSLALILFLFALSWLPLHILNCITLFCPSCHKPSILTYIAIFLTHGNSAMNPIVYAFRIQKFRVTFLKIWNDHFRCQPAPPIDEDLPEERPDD

Chain of hA2a/CHO (P29274 whole entry): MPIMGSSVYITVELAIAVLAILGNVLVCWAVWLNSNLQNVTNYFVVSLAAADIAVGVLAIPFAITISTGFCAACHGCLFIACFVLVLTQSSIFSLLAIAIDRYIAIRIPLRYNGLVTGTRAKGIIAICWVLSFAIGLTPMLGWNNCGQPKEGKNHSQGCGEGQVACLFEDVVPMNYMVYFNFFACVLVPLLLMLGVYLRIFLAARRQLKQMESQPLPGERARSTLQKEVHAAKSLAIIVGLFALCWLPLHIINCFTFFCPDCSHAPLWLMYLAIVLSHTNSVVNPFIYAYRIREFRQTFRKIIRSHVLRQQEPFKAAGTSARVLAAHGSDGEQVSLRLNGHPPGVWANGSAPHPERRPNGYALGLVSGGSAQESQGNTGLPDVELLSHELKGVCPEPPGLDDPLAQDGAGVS
Chain of mA2a/CHO (Q60613 whole entry): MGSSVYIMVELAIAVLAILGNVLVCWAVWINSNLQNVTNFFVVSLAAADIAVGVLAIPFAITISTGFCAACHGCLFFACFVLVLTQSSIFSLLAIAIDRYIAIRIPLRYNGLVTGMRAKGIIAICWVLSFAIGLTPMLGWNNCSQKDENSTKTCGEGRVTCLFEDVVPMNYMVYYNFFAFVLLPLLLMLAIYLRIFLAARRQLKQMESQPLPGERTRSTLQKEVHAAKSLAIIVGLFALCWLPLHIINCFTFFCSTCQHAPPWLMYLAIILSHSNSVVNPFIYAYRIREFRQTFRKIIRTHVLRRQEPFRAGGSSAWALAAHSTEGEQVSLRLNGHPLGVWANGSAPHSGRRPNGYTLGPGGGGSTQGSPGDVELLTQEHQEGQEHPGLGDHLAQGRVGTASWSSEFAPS
Chain of hA2b/CHO (P29275 whole entry): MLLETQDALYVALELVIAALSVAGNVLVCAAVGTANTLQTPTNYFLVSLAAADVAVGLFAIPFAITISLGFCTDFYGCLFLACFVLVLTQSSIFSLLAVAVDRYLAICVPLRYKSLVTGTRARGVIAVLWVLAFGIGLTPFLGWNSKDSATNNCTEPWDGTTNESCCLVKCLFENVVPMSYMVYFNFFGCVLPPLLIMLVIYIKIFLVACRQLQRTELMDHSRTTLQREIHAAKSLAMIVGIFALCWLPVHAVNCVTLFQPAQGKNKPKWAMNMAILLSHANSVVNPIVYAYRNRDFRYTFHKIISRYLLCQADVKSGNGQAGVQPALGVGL

Cc1cc(-c2nc(C(=O)NCc3ccccc3C(F)(F)F)c(N)nc2-c2ccc(F)cc2)cc(C)n1 [Example 53, 3-amino-6-(2,6-dimethylpyridin-4-yl)-5-(4-fluorophenyl)-N-(2-(trifluoromethyl)benzyl)pyrazine-2-carboxamide]
IC50 (mA2a/CHO): 529 nM | IC50 (hA2a/CHO): 60 nM | IC50 (hA2b/CHO): ≥ 10000 nM

Cc1cnc2ccc(-c3nc(C(=O)NCC4CCCN4C)c(N)nc3-c3ncco3)cn12 (single isomer, unassigned) [Example 120]
IC50 (mA2a/CHO): 167 nM | IC50 (hA2b/CHO): 775 nM

Cc1cnc2ccc(-c3nc(C(=O)NC[C@H]4CCCN4C)c(N)nc3-c3ccc(F)cc3)cn12 [Example 138, 3-amino-5-(4-fluorophenyl)-6-[3-methylimidazo[1,2-a]pyridin-6-yl]-N-[[(2R)-1-methylpyrrolidin-2-yl]methyl]pyrazine-2-carboxamide]
IC50 (mA2a/CHO): 70 nM | IC50 (hA2b/CHO): 959 nM

COc1ccccc1CNC(=O)c1nc(-c2ccc(=O)n(C)c2)c(-c2ccc(F)cc2)nc1N [Example 67, 3-amino-5-(4-fluorophenyl)-N-(2-methoxybenzyl)-6-(1-methyl-6-oxo-1,6-dihydropyridin-3-yl)pyrazine-2-carboxamide]
IC50 (mA2a/CHO): 25 nM | IC50 (hA2a/CHO): 6.4 nM | IC50 (hA2b/CHO): 67 nM

CNCCOc1cccnc1CNC(=O)c1nc(-c2ccc3ncn(C)c3c2)c(-c2ccc(F)cc2)nc1N [Example 115, 3-amino-5-(4-fluorophenyl)-6-(1-methyl-1H-1,3-benzodiazol-6-yl)-N-([3-[2-(methylamino)ethoxy]pyridin-2-yl]methyl)pyrazine-2-carboxamide]
IC50 (mA2a/CHO): 12 nM | IC50 (hA2b/CHO): 596 nM

COc1ccccc1CNC(=O)c1nc(-c2cc(C)nc(C)c2)c(-c2ccccc2)nc1N [Example 93, 3-amino-6-(2,6-dimethylpyridin-4-yl)-N-(2-methoxybenzyl)-5-phenylpyrazine-2-carboxamide]
IC50 (mA2a/CHO): 127 nM | IC50 (hA2a/CHO): 8 nM | IC50 (hA2b/CHO): 354 nM

Cc1ccn(-c2nc(N)c(C(=O)Nc3ccccc3OC(F)F)nc2-c2ccc(=O)n(C)c2)n1 [Example 59, 3-amino-N-(2-(difluoromethoxy)phenyl)-5-(3-methyl-1H-pyrazol-1-yl)-6-(1-methyl-6-oxo-1,6-dihydropyridin-3-yl)pyrazine-2-carboxamide]
IC50 (mA2a/CHO): 66 nM | IC50 (hA2a/CHO): 29 nM | IC50 (hA2b/CHO): ≥ 10000 nM

COc1ccccc1CNC(=O)c1nc(-c2cc(C)nc(C)c2)c(-c2cnn(C)c2)nc1N [Example 63, 3-amino-6-(2,6-dimethylpyridin-4-yl)-N-(2-methoxybenzyl)-5-(1-methyl-1H-pyrazol-4-yl)pyrazine-2-carboxamide]
IC50 (mA2a/CHO): 601 nM | IC50 (hA2a/CHO): 33 nM | IC50 (hA2b/CHO): ≥ 10000 nM

COc1ccccc1CNC(=O)c1nc(-c2ccc(=O)n(C(C)C)c2)c(-c2ccc(F)cc2)nc1N [Example 70, 3-amino-5-(4-fluorophenyl)-6-(1-isopropyl-6-oxo-1,6-dihydropyridin-3-yl)-N-(2-methoxybenzyl)pyrazine-2-carboxamide]
IC50 (mA2a/CHO): 5.2 nM | IC50 (hA2a/CHO): 10 nM | IC50 (hA2b/CHO): ≥ 10000 nM

Cc1cnc2ccc(-c3nc(C(=O)NC[C@@H]4CCCN4C)c(N)nc3-c3ccc(F)cc3)cn12 [Example 139, (S)-3-amino-5-(4-fluorophenyl)-6-(3-methylimidazo[1,2-a]pyridin-6-yl)-N-((1-methylpyrrolidin-2-yl)methyl) pyrazine-2-carboxamide]
IC50 (mA2a/CHO): 66 nM | IC50 (hA2b/CHO): 932 nM

Cc1cnc2ccc(-c3nc(C(=O)N[C@H]4CCOC4)c(N)nc3-c3ncco3)cn12 [Example 277, (S)-3-amino-6-(3-methylimidazo[1,2-a]pyridin-6-yl)-5-(oxazol-2-yl)-N-(tetrahydrofuran-3-yl)pyrazine-2-carboxamide]
IC50 (hA2a/CHO): 12 nM | IC50 [1]: 6560 nM

Cc1cnc2ccc(-c3nc(C(=O)NCc4cccc(N5CCOCC5)n4)c(N)nc3-c3ncco3)cn12 [Example 276, 3-amino-6-[3-methylimidazo[1,2-a]pyridin-6-yl]-N-[[6-(morpholin-4-yl)pyridin-2-yl]methyl]-5-(1,3-oxazol-2-yl)pyrazine-2-carboxamide]
IC50 (hA2a/CHO): 3.1 nM | IC50 [1]: 3070 nM

Cc1cnc2ccc(-c3nc(C(=O)NCc4c(F)cccc4F)c(N)nc3N3CCOCC3)cn12 [Example 238, 3-amino-N-(2,6-difluorobenzyl)-6-(3-methylimidazo[1,2-a]pyridin-6-yl)-5-morpholinopyrazine-2-carboxamide]
IC50 (hA2a/CHO): 0.5 nM | IC50 [1]: 401 nM

Cc1cnc2ccc(-c3nc(CNC(=O)C4CCCO4)c(N)nc3-c3ccc(F)cc3)cn12 (stereo in doubt) [Cmpd. 268, (2S)—N-[[3-amino-5-(4-fluorophenyl)-6-[3-methyl-imidazo-[1,2-a]pyridin-6-yl]pyrazin-2-yl]methyl]oxolane-2-carboxamide]
IC50 (hA2a/CHO): 0.2 nM | IC50 [1]: 6.7 nM

Cc1cnc2ccc(-c3nc(C(=O)NCCN(C)C4CCOC4)c(N)nc3-c3ncco3)cn12 (racemic) [Cmpd. 233, rac-3-amino-N-(2-(methyl(tetrahydrofuran-3-yl)amino)ethyl)-6-(3-methylimidazo[1,2-a]pyridin-6-yl)-5-(oxazol-2-yl)pyrazine-2-carboxamide]
IC50 (hA2a/CHO): 38 nM | IC50 [1]: 1910 nM

Cc1cnc2ccc(-c3nc(C(=O)NCC4CCN(C)C4=O)c(N)nc3-c3ccc(F)cc3)cn12 (single isomer, unassigned; isomer 1) [Example 267, 3-amino-5-(4-fluorophenyl)-N-((1-methyl-2-oxopyrrolidin-3-yl)methyl)-6-(3-methylimidazo[1,2-a]pyridin-6-yl) pyrazine-2-carboxamide (isomer 1)]
IC50 (hA2a/CHO): 0.9 nM | IC50 [1]: 2.8 nM

Cc1cnc2ccc(-c3nc(C(=O)NC(C)C4CCCO4)c(N)nc3-c3ncco3)cn12 (single isomer, unassigned; isomer 1) [Example 266, 3-amino-6-(3-methylimidazo[1,2-a]pyridin-6-yl)-5-(oxazol-2-yl)-N-(1-(tetrahydrofuran-2-yl)ethyl)pyrazine-2-carboxamide (isomer 1)]
IC50 (hA2a/CHO): 7.6 nM | IC50 [1]: > 10000 nM

Cc1cc(-c2nc(C(=O)NCc3ccccc3OC(F)(F)F)c(N)nc2-c2ccc(F)cc2)cc(C)n1 [Example 65, 3-amino-6-(2,6-dimethylpyridin-4-yl)-5-(4-fluorophenyl)-N-(2-(trifluoromethoxy)benzyl)pyrazine-2-carboxamide]
IC50 (mA2a/CHO): 50 nM | IC50 (hA2a/CHO): 19 nM

Cc1cnc2ccc(-c3nc(CNC(=O)[C@@H]4CCOC4)c(N)nc3-c3ccc(F)cc3)cn12 [Example 275, (R)-N-((3-amino-5-(4-fluorophenyl)-6-(3-methylimidazo[1,2-a]pyridin-6-yl)pyrazin-2-yl)methyl)tetrahydrofuran-3-carboxamide]
IC50 (hA2a/CHO): 6.1 nM | IC50 [1]: 39 nM

Cc1cnc2ccc(-c3nc(C(=O)NCC4CCOCC4)c(N)nc3-c3ncco3)cn12 [Example 239, 3-amino-6-(3-methylimidazo[1,2-a]pyridin-6-yl)-5-(oxazol-2-yl)-N-((tetrahydro-2H-pyran-4-yl)methyl) pyrazine-2-carboxamide]
IC50 (hA2a/CHO): 4.8 nM | IC50 [1]: 2960 nM

Cc1cnc2ccc(-c3nc(C(=O)NC(C)C4CCCO4)c(N)nc3-c3ncco3)cn12 (single isomer, unassigned; isomer 3) [Example 274, 3-amino-6-(3-methylimidazo[1,2-a]pyridin-6-yl)-5-(oxazol-2-yl)-N-(1-(tetrahydrofuran-2-yl)ethyl)pyrazine-2-carboxamide (isomer 3)]
IC50 (hA2a/CHO): 0.9 nM | IC50 [1]: 275 nM

Cc1cnc2ccc(-c3nc(C(=O)NCc4cccc(N5C[C@H]6CC[C@@H](C5)N6C)n4)c(N)nc3-c3ncco3)cn12 [Example 173, 3-amino-N-((6-((1R,5S)-8-methyl-3,8-diazabicyclo[3.2.1]octan-3-yl)pyridin-2-yl)methyl)-6-(3-methylimidazo[1,2-a]pyridin-6-yl)-5-(oxazol-2-yl)pyrazine-2-carboxamide]
IC50 (hA2a/CHO): 5.1 nM | IC50 [1]: 6500 nM

Cc1cnc2ccc(-c3nc(C(=O)NCC(C4CC4)N(C)C)c(N)nc3-c3ncco3)cn12 (single isomer, unassigned; isomer 2) [Example 269, 3-amino-N-(2-cyclopropyl-2-(dimethylamino)ethyl)-6-(3-methylimidazo[1,2-a]pyridin-6-yl)-5-(oxazol-2-yl) pyrazine-2-carboxamide (isomer 2)]
IC50 (hA2a/CHO): 37 nM | IC50 [1]: > 10000 nM

Cc1cnc2ccc(-c3nc(C(=O)NCc4cccc(N5CCC(N(C)C)C5)n4)c(N)nc3-c3ncco3)cn12 (single isomer, unassigned) [Cmpd. 232, 3-amino-N-((6-(3-(dimethylamino)pyrrolidin-1-yl)pyridin-2-yl)methyl)-6-(3-methylimidazo[1,2-a]pyridin-6-yl)-5-(oxazol-2-yl)pyrazine-2-carboxamide]
IC50 (hA2a/CHO): 0.5 nM | IC50 [1]: 1500 nM

Cc1cnc2ccc(-c3nc(C(=O)NCC4CCCN4C)c(N)nc3-c3ncco3)cn12 (single isomer, unassigned) [Example 121]
IC50 (mA2a/CHO): 204 nM | IC50 (hA2b/CHO): 747 nM

Cc1cnc2ccc(-c3nc(C(=O)NCc4cccc(N5CCC(N(C)C)C5)n4)c(N)nc3-c3ncco3)cn12 (single isomer, unassigned) [Cmpd. 235, 3-amino-N-((6-(3-(dimethylamino)pyrrolidin-1-yl)pyridin-2-yl)methyl)-6-(3-methylimidazo[1,2-a]pyridin-6-yl)-5-(oxazol-2-yl)pyrazine-2-carboxamide]
IC50 (hA2a/CHO): 0.8 nM | IC50 [1]: 5180 nM

Cc1cnc2ccc(-c3nc(C(=O)NCC4CCCN(C)C4=O)c(N)nc3-c3ncco3)cn12 (single isomer, unassigned; isomer 2) [Example 254, 3-amino-N-((1-methyl-2-oxopiperidin-3-yl)methyl)-6-(3-methylimidazo[1,2-a]pyridin-6-yl)-5-(oxazol-2-yl) pyrazine-2-carboxamide (isomer 2)]
IC50 (hA2a/CHO): 0.7 nM | IC50 [1]: 99 nM

Source: patent US10898481B2 (priority 2018, dated 2021)
